Results: the supplement of paper PMC13380429

Columns and labels:
Conditions in all cases: 72 h
U2OS [1] = assay: drug sensitivity score (DSS) for viability; higher = more toxic; extreme values may be limits of the assay
Caco-2 [2] = assay: as above
HepG2 [3] = assay: as above
Vero E6 [4] = assay: as above
Calu-3 [5] = assay: as above
U2OS [6] = assay: relative viability EC50 (midpoint between 100% and the lowest measured viability); higher = less toxic
Caco-2 [7] = assay: as above
HepG2 [8] = assay: as above
Vero E6 [9] = assay: as above
Calu-3 [10] = assay: as above
U2OS [11] = assay: cell viability relative to DMSO; higher = less toxic
Caco-2 [12] = assay: as above
HepG2 [13] = assay: as above
Vero E6 [14] = assay: as above
Calu-3 [15] = assay: as above

Structure (SMILES)	drug sensitivity score (U2OS [1])	drug sensitivity score (Caco-2 [2])	drug sensitivity score (HepG2 [3])	drug sensitivity score (Vero E6 [4])	drug sensitivity score (Calu-3 [5])	relative viability EC50 (U2OS [6]) [µM]	relative viability EC50 (Caco-2 [7]) [µM]	relative viability EC50 (HepG2 [8]) [µM]	relative viability EC50 (Vero E6 [9]) [µM]	relative viability EC50 (Calu-3 [10]) [µM]	cell viability (U2OS [11]; 1 nM) [%]	cell viability (U2OS [11]; 10 nM) [%]	cell viability (U2OS [11]; 100 nM) [%]	cell viability (U2OS [11]; 1000 nM) [%]	cell viability (U2OS [11]; 10000 nM) [%]	cell viability (Caco-2 [12]; 1 nM) [%]	cell viability (Caco-2 [12]; 10 nM) [%]	cell viability (Caco-2 [12]; 100 nM) [%]	cell viability (Caco-2 [12]; 1000 nM) [%]	cell viability (Caco-2 [12]; 10000 nM) [%]	cell viability (HepG2 [13]; 1 nM) [%]	cell viability (HepG2 [13]; 10 nM) [%]	cell viability (HepG2 [13]; 100 nM) [%]	cell viability (HepG2 [13]; 1000 nM) [%]	cell viability (HepG2 [13]; 10000 nM) [%]	cell viability (Vero E6 [14]; 1 nM) [%]	cell viability (Vero E6 [14]; 10 nM) [%]	cell viability (Vero E6 [14]; 100 nM) [%]	cell viability (Vero E6 [14]; 1000 nM) [%]	cell viability (Vero E6 [14]; 10000 nM) [%]	cell viability (Calu-3 [15]; 1 nM) [%]	cell viability (Calu-3 [15]; 10 nM) [%]	cell viability (Calu-3 [15]; 100 nM) [%]	cell viability (Calu-3 [15]; 1000 nM) [%]	cell viability (Calu-3 [15]; 10000 nM) [%]
CC(C)C(=O)c1c(C(C)C)nn2ccccc12 [ibudilast]	0	0	0	0	0	> 10	> 10	> 10	> 10	> 10	94.6	102	97.4	104	104	91.2	89.9	93.3	102	107	94.5	101	109	88.8	99.2	96.8	97.4	98.9	94.7	103	95.7	94.1	93	104	107
COCC(=O)Nc1c(I)c(C(=O)NCC(O)CO)c(I)c(C(=O)N(C)CC(O)CO)c1I (stereo not given) [iopromide]	0	0	0	0	0	> 10	> 10	> 10	> 10	> 10	99	101	99.1	100	95.1	93.6	101	93.7	98.4	102	98	89.1	89.1	85.2	95.6	100	104	93.9	94.9	104	110	104	93.1	94.9	96.1
CCOC(=O)C1=C(C)NC(C)=C(C(=O)OCC)C1c1ccccc1/C=C/C(=O)OC(C)(C)C [lacidipine]	0	2.5	0	0	0	> 10	> 10	> 10	> 10	> 10	96.6	95.2	98.5	92.1	97.5	97.4	91	90.2	84.7	79	96.2	102	96.8	114	91.9	92	99.4	89.7	99.6	106	97	89.8	106	93	91
N#C/C(=C1/SCC(c2ccccc2Cl)S1)n1ccnc1 (stereo not given) [lanoconazole]	0	0	0.8	0	0	> 10	> 10	> 10	> 10	> 10	99.1	99.9	97.4	96.8	89.8	96.6	106	99.7	101	102	93.3	95.5	99.9	97.6	81.6	100	99.1	95.2	92.5	94.9	96.9	103	103	108	86.6
CCC(=O)O[C@@](Cc1ccccc1)(c1ccccc1)[C@@H](C)CN(C)C [levopropoxyphene]	0	0	0	0	0	> 10	> 10	> 10	> 10	> 10	104	101	101	98.8	100	99.3	103	98.3	100	102	94.3	97.1	96.4	94.7	89.4	100	100	96	101	95.4	104	90.1	94.7	102	104
CCOC(=O)Nc1nc2ccccc2[nH]1 [lobendazole]	0	0	0	0	0	> 10	> 10	> 10	> 10	> 10	97.1	96.1	98.2	94.8	99.7	97.9	91.6	96.4	109	95.5	94.6	113	104	111	98.9	96.9	101	87.6	103	103	100	106	102	98.4	95.9
